{
  "source": "patent US20220062205A1",
  "about": "“TREATMENT OF GASTROINTESTINAL DISORDERS AND SYMPTOMS THEREOF” (Indiana University Research and Technology Corporation, priority 2018, published 2022)",
  "type_in_all_cases": "in vivo, mouse",
  "key": {"Winnie mice [1]": {"tested_on": "Winnie mice", "assay": "Clinical symptoms (body weight, rectal prolapse, faecal water content) in Winnie mice treated with APX3330", "details": "for Daily Body Weight: mean, SEM in line below, in % (unit assumed)", "from_the_text": "In this Example, the murine model of IBD named Winnie, in which spontaneous chronic colitis results from a primary intestinal epithelial defect conferred by a mutation in the Muc2 mucin gene, was used to analyze the symptoms of IBD and the effects of treatment with APX3330. Although other models of chronic intestinal inflammation have been developed (e.g., IL-10 knockout), most of them are environment-dependent (attain inflammation only in the presence of pathogenic bacteria). Further, unlike other models, mild spontaneous inflammation in the colorectum is developed in all Winnie mice by 6 weeks of age (young adults) in pathogen-free conditions; it progresses over time and results in severe colitis by the age of 12-16 weeks. This is due to a thinner mucus layer allowing increased intestinal permeability and thus enhanced susceptibility to luminal toxins normally within the gut. In humans, Muc2 production and secretion are reduced leading to a thinner mucosal layer and increased intestinal permeability. Winnie mice (Win/Win) display symptoms of diarrhoea (not watery), ulcerations, rectal bleeding and pain at the acute stages of colitis similar to those in human IBD. The Winnie murine model of chronic colitis (12 w.o.; 15-35 g; n=24) were attained from Victoria University Werribee Animal Facility (Melbourne, Australia) to determine the effectiveness of APX3330 on mechanisms of oxidative stress. Treated Winnie mice were paralleled to a control C57BL/6 group (12 w.o.; 20-30 g; n=12) inclusive of female and male mice. All mice were acclimatized for 3 days prior to receiving in vivo intraperitoneal (IP) injections. All mice were housed at Western Centre for Health, Research and Education (WCHRE, Melbourne, Victoria, Australia) in a temperature-controlled environment with a 12-hour day/night cycle. All animals had free access to food and water with […] efforts made to minimize any suffering. All experimental procedures in this Example were conducted in agreement to the Australian National Health and Medical Research Council (NHMRC) guidelines and approved by Victorian University Animal Experimentation Ethic Committee (AEEC) under animal ethics AEETH 13/001 and AEC 17/016. The small molecular APE1/Ref-1 antagonist; APX3330, was administered via IP injections in Winnie mice at a dose of 25 mg/kg (30 G needle, max volume 200 μl) dissolved in Cremphore (2%) (Sigma-Aldrich): Ethanol (2%) in sterile water (96%). Mice received alternating IP injections twice a day with 12-hour intervals, over the course of two weeks during predominate intestinal inflammation. Winnie-sham treated mice received vehicle injections excluding APX3330 drugs. All mice were monitored, weighed and faecal pellets were collected over the course of treatment."}, "Winnie mice [2]": {"tested_on": "Winnie mice", "assay": "Superoxide production in the myenteric plexus (MitoSOX Red)", "details": "distal colon myenteric plexus; mean±SEM, n=4", "procedure": "The small molecular APE1/Ref-1 antagonist; APX3330, was administered via IP injections in Winnie mice at a dose of 25 mg/kg (30 G needle, max volume 200 μl) dissolved in Cremphore (2%) (Sigma-Aldrich): Ethanol (2%) in sterile water (96%). Mice received alternating IP injections twice a day with 12-hour intervals, over the course of two weeks during predominate intestinal inflammation. Winnie-sham treated mice received vehicle injections excluding APX3330 drugs. All mice were monitored, weighed and faecal pellets were collected over the course of treatment. MITOSOX™ Red M36008 (Invitrogen, Australia), acquired mitochondrial-derived production of superoxide in the myenteric ganglia. Briefly, distal colon preparations from control C57BL/6, Winnie-sham treated and Winnie-APX3330 treated mice freshly excised to expose the myenteric plexus. Samples were incubated at 37° C. for 40 minutes with 5 μM MITOSOX™ Red M36008. Tissues were washed with oxygenated physiological saline and fixed with Zamboni's fixative for 1-hour followed by (3×10 minute) 1×PBS washes. Prepared tissues were mounted on glass slides with DAKO fluorescent a mounting medium for imaging Images were captured as previously described above. Images were converted into binary and changes in fluorescence were measured in arbitrary units (arb. Units) relative to ganglion area using ImageJ software (National Institute of Health)."}, "Winnie mice [3]": {"tested_on": "Winnie mice", "assay": "Gastrointestinal transit of barium sulfate by X-ray imaging", "details": "25 mg/kg IP twice a day", "procedure": "The small molecular APE1/Ref-1 antagonist; APX3330, was administered via IP injections in Winnie mice at a dose of 25 mg/kg (30 G needle, max volume 200 μl) dissolved in Cremphore (2%) (Sigma-Aldrich): Ethanol (2%) in sterile water (96%). Mice received alternating IP injections twice a day with 12-hour intervals, over the course of two weeks during predominate intestinal inflammation. Winnie-sham treated mice received vehicle injections excluding APX3330 drugs. All mice were monitored, weighed and faecal pellets were collected over the course of treatment. GI transit was acquired via a non-invasive radiological method. Briefly, control C57BL/6, Winnie-sham treated and Winnie-APX3330 treated mice received an administration of barium sulfate (2.5 mg/mL; max volume of 200 μl; X-OPAQUE-HD) via oral gavage. Sequential x-rays were attained by HiRay Plus Porta610HF x-ray apparatus (JOC Corp, Kanagawa, Japan; 50 kV, 0.3 mAs, exposure time 60 ms) immediately post Barium sulfate administration (0 min), every 5 minutes for the first hour, 10 minutes for the second hour and then every 20 minutes through to 250 minutes. Fujifilm FCR Capsule XL11 and analysed on eFilm 4.2.0 software developed images. Parameters of GI transit were measured by time (mins) to determine contrast passing through whole GI tract (whole transit time), stomach to caecum (oro-cecal transit time; OCTT), leaving caecum to anus (colonic transit time; CTT) and caecum retention time."}},
  "data": [
    {"smiles": "CCCCCCCCCC(=CC1=C(C)C(=O)C(OC)=C(OC)C1=O)C(=O)O", "note": "[APX3330]", "values": [
      {"measurement": "Daily Body Weight", "setting": "Winnie mice [1]; Day 1, relative to initial weight, 25 mg/kg IP twice a day", "value": 102},
      {"measurement": "Daily Body Weight", "setting": "Winnie mice [1]; Day 2, relative to initial weight, 25 mg/kg IP twice a day", "value": 100},
      {"measurement": "Daily Body Weight", "setting": "Winnie mice [1]; Day 3, relative to initial weight, 25 mg/kg IP twice a day", "value": 101},
      {"measurement": "Daily Body Weight", "setting": "Winnie mice [1]; Day 4, relative to initial weight, 25 mg/kg IP twice a day", "value": 101},
      {"measurement": "Daily Body Weight", "setting": "Winnie mice [1]; Day 5, relative to initial weight, 25 mg/kg IP twice a day", "value": 100},
      {"measurement": "Daily Body Weight", "setting": "Winnie mice [1]; Day 6, relative to initial weight, 25 mg/kg IP twice a day", "value": 100},
      {"measurement": "Daily Body Weight", "setting": "Winnie mice [1]; Day 7, relative to initial weight, 25 mg/kg IP twice a day", "value": 98},
      {"measurement": "Daily Body Weight", "setting": "Winnie mice [1]; Day 8, relative to initial weight, 25 mg/kg IP twice a day", "value": 98},
      {"measurement": "Daily Body Weight", "setting": "Winnie mice [1]; Day 9, relative to initial weight, 25 mg/kg IP twice a day", "value": 98},
      {"measurement": "Daily Body Weight", "setting": "Winnie mice [1]; Day 10, relative to initial weight, 25 mg/kg IP twice a day", "value": 99},
      {"measurement": "Daily Body Weight", "setting": "Winnie mice [1]; Day 11, relative to initial weight, 25 mg/kg IP twice a day", "value": 99},
      {"measurement": "Daily Body Weight", "setting": "Winnie mice [1]; Day 12, relative to initial weight, 25 mg/kg IP twice a day", "value": 99},
      {"measurement": "Daily Body Weight", "setting": "Winnie mice [1]; Day 13, relative to initial weight, 25 mg/kg IP twice a day", "value": 99},
      {"measurement": "rectal prolapse, edema and bleeding", "setting": "Winnie mice [1]; by day 14 of treatments, 25 mg/kg IP twice a day", "value": "reduced"},
      {"measurement": "faecal water content", "setting": "Winnie mice [1]; day 14, 25 mg/kg IP twice a day, mean±SEM, n=7", "value": "73.2±2.1", "unit": "%"},
      {"measurement": "MitoSOX fluorescence (superoxide production) relative to ganglion area", "setting": "Winnie mice [2]", "value": "19.2±7.5", "unit": "%"},
      {"measurement": "retention time in the cecum", "setting": "Winnie mice [3]; Winnie mice, mean±SEM", "value": "86.4 ± 17.8", "unit": "min"},
      {"measurement": "total transit time", "setting": "Winnie mice [3]; Winnie mice, mean±SEM", "value": "173.3 ± 24.6", "unit": "min"},
      {"measurement": "oro-caecal transit time (OCTT)", "setting": "Winnie mice [3]; between experimental groups, Winnie mice", "value": "No changes"},
      {"measurement": "colonic transit time (CTT)", "setting": "Winnie mice [3]; compared to Winnie-sham treated mice", "value": "improved"}
    ]}
  ]
}
